For eight compounds, GI50 and TGI results are on record in PubChem BioAssay (NCI).

Holding throughout (assay): NCI-60 cell line screen, 48 h
In experiment [1] the test system is A498 renal.
Experiment [2] concerns A549 NSCLC.
Experiment [3] concerns MDA-MB-231 breast.
For experiment [4], the system named is OVCAR-4 ovarian.
The subject of experiment [5] is PC-3 prostate.
For experiment [6], the system named is SF-295 CNS.
Experiment [7] concerns SNB-19 CNS.
Experiment [8] deals with SNB-75 CNS.
In experiment [9] the test system is TK-10 renal.
Experiment [10] has as its system UO-31 renal.

Structures are written as SMILES.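 Dose response: 5 concentrations. Exposure: 48 h. Format: 96-well plates. Endpoint: linear interpolation; highest concentration if not reached. GI50 is the concentration that inhibits growth by half. TGI is the concentration that stops growth completely.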

For `Cn1cc(-c2cnn3c(N)c(Br)c(C4CCCNC4)nc23)cn1` (centres undefined), the GI50 is 0.238 µM in experiment [1]; 17.3 µM in experiment [2]; 5.53 µM in experiment [3]; 14.6 µM in [4]; 5.26 µM in [5]; 0.527 µM in experiment [6]. The GI50 is 18.4 µM in experiment [7], 0.464 µM in [8], 3.69 µM in experiment [9] and 4.63 µM in experiment [10]. The TGI was 2 µM in [1]; greater than 100 µM in [2]; 40 µM in [3]; 96.1 µM in experiment [4]; greater than 86.2 µM in experiment [5]; greater than 44.4 µM in experiment [6]. In addition, the TGI was greater than 100 µM in [7], 39.1 µM in experiment [8], greater than 83 µM in [9] and greater than 78.3 µM in experiment [10].

`Oc1c(Cl)cc(Cl)c2ccc(Cn3cc(-c4ccc(C(F)(F)F)cc4)nn3)nc12`: the GI50 in [1] was 3.57 µM; in experiment [2], 16.5 µM; in experiment [3] it was 2.19 µM; in experiment [4], 1.43 µM; in experiment [5], 3 µM; in experiment [6], 17.2 µM. The GI50 was 8.94 µM in experiment [7], 1.74 µM in experiment [8], 1.95 µM in experiment [9] and 1.36 µM in experiment [10]. The TGI in [1] stood at 13.8 µM; in experiment [2], 38.6 µM; in experiment [3], 6.81 µM; in [4], 3.37 µM; in experiment [5], 11.1 µM; in experiment [6] it was 32.1 µM. For the same compound, the TGI in experiment [7] worked out at 22.8 µM; in experiment [8], 10.8 µM; in [9] it was 4.22 µM; in experiment [10] it was 3.62 µM.

With `O=C1c2ccccc2-c2c1c1ccccc1c(=O)n2CCCNCCn1c2c(c3ccccc3c1=O)C(=O)c1ccccc1-2`, the GI50 in experiment [1] was 12.7 µM; in experiment [2], 13.5 µM; in experiment [3], 2 µM; in [4], 11.5 µM; in experiment [5] it was 2.43 µM; in experiment [6], 7.77 µM. The GI50 in experiment [7] is 2.48 µM; in [8], 11.8 µM; in experiment [9], 3.8 µM. The TGI in experiment [1] was found to be 25.3 µM; in experiment [2] it was 26.3 µM; in experiment [3], 9.25 µM; in experiment [4] it was 24.9 µM; in experiment [5] it was 10.5 µM; in [6], 27.5 µM. Moreover, the TGI was determined as 11.6 µM in experiment [7], 32.2 µM in experiment [8], 15.8 µM in [9] and 17.3 µM in experiment [10].

With `O=C(CCN1CCCCC1)N1CCc2c([nH]c3ccccc23)C1c1cccnc1` (centres undefined), the TGI in experiment [1] is greater than 100 µM; in [2] it was greater than 100 µM; in [3] it was greater than 74.2 µM; in experiment [4] it was greater than 100 µM; in [5], greater than 100 µM; in experiment [6], greater than 100 µM. For the same compound, the TGI in [7] is greater than 100 µM; in experiment [8], greater than 92.1 µM; in experiment [9], greater than 100 µM; in experiment [10], 71.1 µM.

Take `Cc1cc(Nc2cc(N3CCN(C)CC3)nc(/C=C/c3ccccc3)n2)n[nH]1`: the GI50 in experiment [1] was 0.389 µM; in [2], 0.501 µM; in experiment [3], 0.966 µM; in [4], 0.644 µM; in experiment [5] it was 0.794 µM; in [6], 0.707 µM. For the same compound, the GI50 was 1.49 µM in experiment [7], 0.391 µM in [8], 0.797 µM in [9] and 0.263 µM in experiment [10]. Moreover, the TGI in experiment [1] was 1.66 µM; in experiment [2] it was greater than 10 µM; in [3], 9.95 µM; in experiment [4], greater than 10 µM; in experiment [5], greater than 6.61 µM; in experiment [6] it was greater than 4.64 µM. Further, the TGI is greater than 10 µM in experiment [7], 2.12 µM in experiment [8], greater than 5.11 µM in experiment [9] and 2.7 µM in experiment [10].

On to `Cc1cc(-c2cc(O)ccc2Cl)cc2nnc(Nc3ccc(OCCN4CCCC4)cc3)nc12`, for which the GI50 was 1.41 µM in [1]; 1.36 µM in experiment [2]; 0.299 µM in experiment [3]; 0.615 µM in experiment [4]; 0.424 µM in experiment [5]; 1.7 µM in experiment [6]. Besides, the GI50 in [7] is 0.659 µM; in experiment [8], 0.824 µM; in experiment [9], 1.39 µM; in experiment [10] it was 1.3 µM. The TGI stood at 2.92 µM in experiment [1]; 3.48 µM in experiment [2]; 0.967 µM in experiment [3]; 1.3 µM in experiment [4]; 1.54 µM in [5]; 3.32 µM in experiment [6]. Also, the TGI in [7] turned out to be 1.23 µM; in experiment [8], 2.22 µM; in experiment [9], 3 µM; in [10] it was 2.73 µM.

In the case of `CC(=O)N1N=C(c2ccc(Nc3nc(Nc4ccc(F)cc4)nc(Nc4ccc(F)cc4)n3)cc2)CC1c1ccc(N(C)C)cc1` (centres undefined), the GI50 was 5.58 µM in experiment [1]; 4.58 µM in [2]; 6.54 µM in experiment [3]; 3.77 µM in experiment [4]; 1.6 µM in experiment [5]; 4.34 µM in experiment [6]. In addition, the GI50 in experiment [7] is 16.1 µM; in [8], 1.51 µM; in experiment [9], 7.02 µM; in experiment [10], 5.94 µM. In addition, the TGI was 26.8 µM in [1]; 26.8 µM in experiment [2]; 29.7 µM in experiment [3]; greater than 100 µM in [4]; 6.97 µM in [5]; 50.7 µM in experiment [6]. Further, the TGI in [7] is greater than 100 µM; in experiment [8], 9.89 µM; in experiment [9] it was 39.2 µM; in experiment [10] it was 35.8 µM.

As to `CC(=O)C1=C(O)C=C2Oc3c(C(=O)/C=C/c4cc(Cl)cc(Cl)c4)c(O)c(C)c(O)c3[C@]2(C)C1=O`, the GI50 in [1] is 0.259 µM; in experiment [2], 0.566 µM; in [3] it was 0.541 µM; in [4], 0.565 µM; in [5], 0.537 µM; in experiment [6], 0.36 µM. For the same compound, the GI50 in experiment [7] is 0.582 µM; in experiment [8], 1.66 µM; in [9], 0.446 µM; in experiment [10], 0.392 µM. Besides, the TGI in [1] amounted to 0.5 µM; in experiment [2], 2.98 µM; in experiment [3], 1.85 µM; in experiment [4], 7.17 µM; in experiment [5], 2.04 µM; in experiment [6], 0.887 µM. In addition, the TGI is 3.06 µM in [7], 4.06 µM in experiment [8], 1.68 µM in [9] and 1.03 µM in [10].
